According to PubChem BioAssay AID330 (DTP/NCI, 2004):
Values joined by “and” are separate entries in the source; they are usually repeats but may differ in a detail not shown here. Equal entries are not always repeated. Inconclusive results and toxic doses are left out.

Test system: P388 leukemia ip, CD2F1 mice, survival T/C
Assay: NCI In Vivo Anticancer Drug Screen. Data for tumor model P388 Leukemia (intraperitoneal) in CD2F1 (CDF1) mice
Details: endpoint: median survival time, higher = longer survival
In short: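 Mice carrying the transplanted tumor received test compound or vehicle. Survival was recorded in each group, and the value is the treated-group measurement divided by that of the vehicle-treated control group.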

[1] = dose: 50.0 mg/kg/injection, schedule: Q01DX005 (ip), vehicle: saline with Tween-80
[2] = dose: 100.0 mg/kg/injection, schedule: Q01DX005 (ip), vehicle: saline with Tween-80
[3] = dose: 200.0 mg/kg/injection, schedule: Q01DX005 (ip), vehicle: saline with Tween-80
[4] = dose: 60.0 mg/kg/injection, schedule: Q01DX005 (ip), vehicle: saline with Tween-80
[5] = dose: 50.0 mg/kg/injection, schedule: Q01DX009 (ip), vehicle: Klucel (hydroxypropylcellulose) (HPC)
[6] = dose: 50.0 mg/kg/injection, schedule: Q01DX009 (ip), vehicle: saline with Tween-80
[7] = dose: 100.0 mg/kg/injection, schedule: Q01DX009 (ip), vehicle: saline with Tween-80
[8] = dose: 200.0 mg/kg/injection, schedule: Q01DX009 (ip), vehicle: saline with Tween-80
[9] = dose: 12.5 mg/kg/injection, schedule: Q01DX009 (ip), vehicle: saline with Tween-80

For CC[C@@]1(O)C[C@H](OC2CC(N)C(O)C(C)O2)c2c(O)c3c(c(O)c2[C@H]1C(=O)OC)C(=O)c1cccc(O)c1C3=O (stereo partly specified), the T/C (dose: 1.0 mg/kg/injection, schedule: Q01DX009 (ip), vehicle: water) was 115 % of control, the T/C (dose: 2.0 mg/kg/injection, schedule: Q01DX009 (ip), vehicle: water) was 116 % of control and the T/C (dose: 2.3 mg/kg/injection, schedule: Q01DX009 (ip), vehicle: water) was 123 % of control. For the same compound, the T/C (dose: 12.5 mg/kg/injection, schedule: Q01DX001 (ip), vehicle: water) was 116 % of control, the T/C (dose: 16.0 mg/kg/injection, schedule: Q01DX009 (ip), vehicle: water) was 86 % of control and the T/C (dose: 25.0 mg/kg/injection, schedule: Q01DX001 (ip), vehicle: water) was 150 % of control.

OC1COC(O)(CN2CCOCC2)C(O)C1O (stereo unspecified) was tested, and the T/C [1] was 100 % of control, the T/C [2] was 98 % of control and the T/C [3] was 97 % of control.

CCCCCCCCCCC[CH2][Sn]([CH3])([CH3])[O]C(C)=O was tested, and the T/C (dose: 12.5 mg/kg/injection, schedule: Q01DX009 (ip), vehicle: saline) was 99 % of control, the T/C (dose: 25.0 mg/kg/injection, schedule: Q01DX009 (ip), vehicle: saline) was 99 % of control and the T/C (dose: 50.0 mg/kg/injection, schedule: Q01DX009 (ip), vehicle: saline) was 94 % of control.

N=C(N)SC12CC3CC(CC(C3)C1)C2 was tested, and the T/C (dose: 7.5 mg/kg/injection, schedule: Q01DX005 (ip), vehicle: saline with Tween-80) was 93 % of control, the T/C (dose: 15.0 mg/kg/injection, schedule: Q01DX005 (ip), vehicle: saline with Tween-80) was 98 % of control and the T/C (dose: 30.0 mg/kg/injection, schedule: Q01DX005 (ip), vehicle: saline with Tween-80) was 99 % of control. The T/C [4] was 98 % of control.

CCOP(=O)(OCC)C(C)NC(=O)C(C)NC(=O)c1cn(CC)c2nc(C)ccc2c1=O (stereo unspecified) was tested, and the T/C (dose: 100.0 mg/kg/injection, schedule: Q04DX002 (ip), vehicle: saline) was 97 % of control, the T/C (dose: 200.0 mg/kg/injection, schedule: Q04DX002 (ip), vehicle: saline) was 97 % of control and the T/C (dose: 400.0 mg/kg/injection, schedule: Q04DX002 (ip), vehicle: saline) was 95 % of control.

With Cc1cc(NN)nc2n[nH]c(N)c12 the T/C (dose: 12.5 mg/kg/injection, schedule: Q01DX005 (ip), vehicle: saline with Tween-80) was 105 % of control, the T/C (dose: 25.0 mg/kg/injection, schedule: Q01DX005 (ip), vehicle: saline with Tween-80) was 97 % of control and the T/C [1] was 102 % of control and 112 % of control.

For CCCCC/C(=N\Nc1ccc([N+](=O)[O-])cc1[N+](=O)[O-])c1ccccc1, the T/C (dose: 50.0 mg/kg/injection, schedule: Q01DX001 (ip), vehicle: saline with Tween-80) was 105 % of control, the T/C (dose: 100.0 mg/kg/injection, schedule: Q01DX001 (ip), vehicle: saline with Tween-80) was 95 % of control and the T/C (dose: 200.0 mg/kg/injection, schedule: Q01DX001 (ip), vehicle: saline with Tween-80) was 95 % of control.

With CC1(C)N=C(N)N=C(N)N1c1ccc(CCc2ccccc2)cc1 the T/C (dose: 37.5 mg/kg/injection, schedule: Q04DX003 (ip), vehicle: saline with Tween-80) was 87 % of control, the T/C (dose: 75.0 mg/kg/injection, schedule: Q04DX003 (ip), vehicle: saline with Tween-80) was 100 % of control and the T/C (dose: 100.0 mg/kg/injection, schedule: Q04DX003 (ip), vehicle: saline) was 120 % of control. The T/C (dose: 200.0 mg/kg/injection, schedule: Q04DX003 (ip), vehicle: saline) was 100 % of control.

In the case of Clc1ccc(-c2cc3cc4c(cc3[nH]2)Oc2ccccc2O4)cc1, the T/C (dose: 17.5 mg/kg/injection, schedule: Q01DX009 (ip), vehicle: Klucel (hydroxypropylcellulose) (HPC)) was 107 % of control, the T/C (dose: 35.0 mg/kg/injection, schedule: Q01DX009 (ip), vehicle: Klucel (hydroxypropylcellulose) (HPC)) was 103 % of control and the T/C (dose: 70.0 mg/kg/injection, schedule: Q01DX009 (ip), vehicle: Klucel (hydroxypropylcellulose) (HPC)) was 103 % of control.

For O=C1C=C(c2ccccc2)Sc2ccccc2N1, the T/C [5] was 95 % of control, the T/C (dose: 100.0 mg/kg/injection, schedule: Q01DX009 (ip), vehicle: Klucel (hydroxypropylcellulose) (HPC)) was 88 % of control and the T/C (dose: 200.0 mg/kg/injection, schedule: Q01DX009 (ip), vehicle: Klucel (hydroxypropylcellulose) (HPC)) was 87 % of control. The T/C (dose: 400.0 mg/kg/injection, schedule: Q01DX009 (ip), vehicle: Klucel (hydroxypropylcellulose) (HPC)) was 94 % of control.

CCN(CC)C(=S)C(C)(C)C was tested, and the T/C [4] was 106 % of control and the T/C (dose: 120.0 mg/kg/injection, schedule: Q01DX005 (ip), vehicle: saline with Tween-80) was 106 % of control.

For C[Si](C)(C)N([Si](C)(C)C)[Si](C)(C)C, the T/C (dose: 50.0 mg/kg/injection, schedule: Q01DX009 (ip), vehicle: other) was 97 % of control, the T/C (dose: 100.0 mg/kg/injection, schedule: Q01DX009 (ip), vehicle: other) was 98 % of control and the T/C (dose: 200.0 mg/kg/injection, schedule: Q01DX009 (ip), vehicle: other) was 100 % of control.

With CCCCOc1ccc(NC(=O)Nc2nnc(C)s2)cc1 the T/C [6] was 99 % of control, the T/C [7] was 89 % of control and the T/C [8] was 86 % of control.

For CCOc1ccc(NC(=O)CC(C)O)cc1 (stereo unspecified), the T/C [6] was 94 % of control, the T/C [7] was 93 % of control and the T/C [8] was 96 % of control.

In the case of c1ccc2c(c1)nnn1c3cnccc3nc21, the T/C [9] was 111 % of control.

CN(C)Sc1ccc(Cl)cc1[N+](=O)[O-] was tested, and the T/C [6] was 109 % of control, the T/C [7] was 100 % of control and the T/C (dose: 100.0 mg/kg/injection, schedule: Q01DX009 (ip), vehicle: saline) was 97 % of control. The T/C [8] was 106 % of control and the T/C (dose: 200.0 mg/kg/injection, schedule: Q01DX009 (ip), vehicle: saline) was 97 % of control.

With CCC(=O)OCC(=O)[C@]1(O)Cc2c(O)c3c(c(O)c2[C@@H](OC2CC(N)C(O)C(C)O2)C1)C(=O)c1c(OC)cccc1C3=O (stereo partly specified) the T/C (dose: 0.25 mg/kg/injection, schedule: Q01DX009 (ip), vehicle: saline) was 163 % of control, the T/C (dose: 0.5 mg/kg/injection, schedule: Q01DX009 (ip), vehicle: saline sonified) was 172 % of control and the T/C (dose: 0.5 mg/kg/injection, schedule: Q01DX009 (ip), vehicle: saline) was 174 % of control. The T/C (dose: 1.0 mg/kg/injection, schedule: Q01DX009 (ip), vehicle: saline sonified) was 168 % of control, the T/C (dose: 1.0 mg/kg/injection, schedule: Q01DX009 (ip), vehicle: saline) was 225 % of control and the T/C (dose: 2.0 mg/kg/injection, schedule: Q01DX009 (ip), vehicle: saline sonified) was 172 % of control. For the same compound, the T/C (dose: 2.0 mg/kg/injection, schedule: Q01DX009 (ip), vehicle: saline) was 252 % of control and the T/C (dose: 8.0 mg/kg/injection, schedule: Q01DX009 (ip), vehicle: saline) was 114 % of control.

In the case of CN(C)C1=NS(=O)(=O)c2ccccc21, the T/C [1] was 100 % of control, the T/C [2] was 106 % of control and the T/C [3] was 93 % of control.

For CC1OC(C)(C)OC1C(=O)O (stereo unspecified), the T/C (dose: 3.13 mg/kg/injection, schedule: Q01DX009 (ip), vehicle: Klucel (hydroxypropylcellulose) (HPC)) was 89 % of control, the T/C (dose: 6.25 mg/kg/injection, schedule: Q01DX009 (ip), vehicle: Klucel (hydroxypropylcellulose) (HPC)) was 95 % of control and the T/C (dose: 12.5 mg/kg/injection, schedule: Q01DX009 (ip), vehicle: Klucel (hydroxypropylcellulose) (HPC)) was 92 % of control. For the same compound, the T/C (dose: 25.0 mg/kg/injection, schedule: Q01DX009 (ip), vehicle: Klucel (hydroxypropylcellulose) (HPC)) was 89 % of control and the T/C [5] was 89 % of control.

Nc1cc(=O)[nH][nH]1 was tested, and the T/C (dose: 100.0 mg/kg/injection, schedule: Q04DX003 (ip), vehicle: saline with Tween-80) was 100 % of control, the T/C (dose: 200.0 mg/kg/injection, schedule: Q04DX003 (ip), vehicle: saline with Tween-80) was 100 % of control and the T/C (dose: 400.0 mg/kg/injection, schedule: Q04DX003 (ip), vehicle: saline with Tween-80) was 109 % of control.

COc1cc(NS(C)(=O)=O)ccc1Nc1c2ccc([N+](=O)[O-])cc2nc2c(C)c(C)ccc12 was tested, and the T/C (dose: 0.04 mg/kg/injection, schedule: Q01DX009 (ip), vehicle: saline with Tween-80) was 120 % of control, the T/C (dose: 0.07 mg/kg/injection, schedule: Q01DX009 (ip), vehicle: saline with Tween-80) was 120 % of control and the T/C (dose: 1.13 mg/kg/injection, schedule: Q01DX009 (ip), vehicle: saline with Tween-80) was 157 % of control. For the same compound, the T/C (dose: 6.25 mg/kg/injection, schedule: Q01DX009 (ip), vehicle: saline with Tween-80) was 254 % of control, the T/C (dose: 8.8 mg/kg/injection, schedule: Q04DX003 (ip), vehicle: saline with Tween-80) was 218 % of control and the T/C [9] was 291 % of control. The T/C (dose: 13.2 mg/kg/injection, schedule: Q04DX003 (ip), vehicle: saline with Tween-80) was 209 % of control, the T/C (dose: 20.0 mg/kg/injection, schedule: Q04DX003 (ip), vehicle: saline with Tween-80) was 231 % of control and the T/C (dose: 30.0 mg/kg/injection, schedule: Q04DX003 (ip), vehicle: saline with Tween-80) was 263 % of control.
